For 22 molecules, inhibition results are on record in ChEMBL document CHEMBL3046858, “Synthesis and fungicidal activities of novel indene-substituted oxime ether strobilurins” (2008).

The structures appear in SMILES notation.

What all share (assay type): functional
What all share (parameters): dose or concentration left out as unconfirmed

The test system of one assay is Botrytis cinerea. The assay is described as follows: Fungicidal activity against Botryotinia fuckeliana assessed as inhibition of mycelial growth at 25 mg/ml measured after 48 hr.
The test system of assay [1] is Pseudoperonospora cubensis. The assay is described as follows: Fungicidal activity against Pseudoperonospora cubensis grown on compound pre-treated cucumber leaves assessed as inhibition of fungal growth at 6.25 mg/ml measured 5 days post compound treatment.
The next assay deals with Phytophthora infestans. As to the kind of experiment: Fungicidal activity against Phytophthora infestans assessed as inhibition of mycelial growth at 25 mg/ml measured after 48 hr.
The next assay deals with Pyricularia oryzae. The assay is described as follows: Fungicidal activity against Magnaporthe oryzae assessed as inhibition of mycelial growth at 25 mg/ml measured after 48 hr.
A further assay concerns Colletotrichum lagenaria. As to the kind of experiment: Fungicidal activity against Colletotrichum lagenaria infected in compound pre-treated cucumber plants assessed as inhibition of fungal growth at 6.25 mg/ml measured 3 days post compound treatment.
The test system of the next assay is Blumeria graminis. As to the kind of experiment: Fungicidal activity against Blumeria graminis grown on compound pre-treated wheat seedlings assessed as inhibition of fungal growth at 6.25 mg/ml measured 7 days post fungal inoculation.

Consider `CO/N=C(/C(=O)OC)c1ccccc1CO/N=C(\C)C1=Cc2cc(F)ccc2C1`, for which the inhibition is 80% in the assay with Botrytis cinerea; 70% in assay [1]; 100% with Phytophthora infestans; 50% with Pyricularia oryzae; 40% in the assay on Colletotrichum lagenaria; 100% in the assay on Blumeria graminis.
Take `CO/C=C(/C(=O)OC)c1ccccc1CO/N=C(\C)C1=Cc2ccc(Cl)cc2C1`: the inhibition in the assay on Botrytis cinerea was found to be 80%; in assay [1], 40%; with Phytophthora infestans, 100%; in the assay on Pyricularia oryzae it was 50%; in the assay on Colletotrichum lagenaria it was 60%; in the assay with Blumeria graminis, 100%.
With `CO/C=C(/C(=O)OC)c1ccccc1CO/N=C(\C)C1=Cc2ccc(F)cc2C1`, the inhibition with Botrytis cinerea worked out at 50%; in the assay on Phytophthora infestans, 100%; in the assay on Pyricularia oryzae it was 100%; in the assay on Colletotrichum lagenaria, 60%; in the assay on Blumeria graminis, 100%.
On to `CNC(=O)/C(=N/OC)c1ccccc1CO/N=C(\C)C1=Cc2ccc(C)cc2C1`, for which the inhibition (with Botrytis cinerea; in assay [1]; in the assay on Phytophthora infestans; in the assay on Pyricularia oryzae; with Colletotrichum lagenaria; in the assay on Blumeria graminis) was 100% each time.
On to `CNC(=O)/C(=N/OC)c1ccccc1CO/N=C(\C)C1=Cc2ccc(F)cc2C1`, for which the inhibition in the assay with Botrytis cinerea is 80%; in assay [1], 100%; in the assay on Phytophthora infestans, 100%; with Pyricularia oryzae, 100%; in the assay with Colletotrichum lagenaria, 100%; in the assay with Blumeria graminis it was 100%.
For `CO/N=C(\C(=O)OC)c1ccccc1CO/N=C(\C)c1cccc(C(F)(F)F)c1`, the inhibition in the assay with Botrytis cinerea turned out to be 100%; in assay [1], 50%; in the assay on Pyricularia oryzae, 100%; with Colletotrichum lagenaria it was 60%; in the assay on Blumeria graminis, 100%.
Consider `CO/N=C(/C(=O)OC)c1ccccc1CO/N=C(\C)C1=Cc2c(Cl)cccc2C1`, for which the inhibition with Botrytis cinerea is 100%; in assay [1], 90%; in the assay on Phytophthora infestans it was 100%; in the assay with Pyricularia oryzae, 100%; in the assay on Colletotrichum lagenaria it was 100%; in the assay with Blumeria graminis, 100%.
Turning to `CO/N=C(/C(=O)OC)c1ccccc1COc1ccccc1C` [KRESOXIM-METHYL], the inhibition came out at 100% with Botrytis cinerea; 0% in assay [1]; 100% in the assay on Pyricularia oryzae; 30% with Colletotrichum lagenaria; 100% in the assay on Blumeria graminis.
As for `CNC(=O)/C(=N/OC)c1ccccc1CO/N=C(\C)C1=Cc2ccccc2C1`, the inhibition in the assay with Botrytis cinerea worked out at 100%; in assay [1], 95%; with Phytophthora infestans, 100%; with Pyricularia oryzae, 100%; with Colletotrichum lagenaria it was 95%; in the assay on Blumeria graminis it was 100%.
For the molecule `CNC(=O)/C(=N/OC)c1ccccc1CO/N=C(\C)C1=Cc2cc(F)ccc2C1`, the inhibition amounted to 80% in the assay on Botrytis cinerea; 30% in assay [1]; 80% with Phytophthora infestans; 100% with Pyricularia oryzae; 30% in the assay on Colletotrichum lagenaria; 100% in the assay on Blumeria graminis.
Consider `CO/C=C(/C(=O)OC)c1ccccc1CO/N=C(\C)C1=Cc2ccc(C)cc2C1`, for which the inhibition came out at 80% in the assay with Botrytis cinerea; 80% in assay [1]; 100% in the assay with Phytophthora infestans; 100% in the assay with Pyricularia oryzae; 70% in the assay with Colletotrichum lagenaria; 100% with Blumeria graminis.
Regarding `CO/N=C(/C(=O)OC)c1ccccc1CO/N=C(\C)C1=Cc2ccc(Cl)cc2C1`, the inhibition amounted to 80% with Botrytis cinerea; 50% in assay [1]; 100% in the assay on Phytophthora infestans; 100% in the assay on Pyricularia oryzae; 65% in the assay on Colletotrichum lagenaria; 90% with Blumeria graminis.
Take `CNC(=O)/C(=N/OC)c1ccccc1CO/N=C(\C)C1=Cc2c(Cl)cccc2C1`: the inhibition in the assay with Botrytis cinerea came to 80%; in assay [1], 100%; in the assay with Phytophthora infestans it was 100%; in the assay on Pyricularia oryzae, 100%; in the assay on Colletotrichum lagenaria, 80%; in the assay on Blumeria graminis, 100%.
In the case of `CO/C=C(/C(=O)OC)c1ccccc1CO/N=C(C)/C=C/c1ccc(Cl)cc1`, the inhibition in the assay with Botrytis cinerea was determined as 80%; in assay [1], 100%; with Pyricularia oryzae it was 100%; with Colletotrichum lagenaria, 50%; in the assay on Blumeria graminis, 62.5%.
Take `CO/N=C(/C(=O)OC)c1ccccc1CO/N=C(\C)C1=Cc2ccc(F)cc2C1`: the inhibition in the assay on Botrytis cinerea came to 50%; in assay [1] it was 85%; in the assay on Phytophthora infestans it was 100%; with Pyricularia oryzae it was 100%; in the assay with Colletotrichum lagenaria it was 40%; with Blumeria graminis it was 85%.
Turning to `CNC(=O)/C(=N/OC)c1ccccc1CO/N=C(\C)C1=Cc2ccc(Cl)cc2C1`, the inhibition in the assay on Botrytis cinerea came to 100%; in assay [1], 85%; in the assay with Phytophthora infestans it was 100%; in the assay on Pyricularia oryzae, 100%; in the assay on Colletotrichum lagenaria it was 100%; in the assay with Blumeria graminis, 100%.
Take `CO/C=C(/C(=O)OC)c1ccccc1CO/N=C(\C)C1=Cc2cc(Cl)ccc2C1`: the inhibition is 80% with Botrytis cinerea; 30% in assay [1]; 100% in the assay on Phytophthora infestans; 100% in the assay on Pyricularia oryzae; 30% with Colletotrichum lagenaria; 100% with Blumeria graminis.
As to `CO/N=C(/C(=O)OC)c1ccccc1CO/N=C(\C)C1=Cc2ccc(C)cc2C1`, the inhibition is 80% in the assay with Botrytis cinerea; 100% in assay [1]; 100% in the assay on Phytophthora infestans; 100% in the assay on Pyricularia oryzae; 90% with Colletotrichum lagenaria; 100% in the assay with Blumeria graminis.
For `CO/N=C(/C(=O)OC)c1ccccc1CO/N=C(\C)C1=Cc2cc(Cl)ccc2C1`, the inhibition with Botrytis cinerea is 80%; in assay [1] it was 95%; in the assay with Phytophthora infestans, 100%; in the assay on Pyricularia oryzae it was 100%; in the assay on Colletotrichum lagenaria it was 90%; in the assay with Blumeria graminis, 95%.
Consider `CO/N=C(/C(=O)OC)c1ccccc1CO/N=C(\C)C1=Cc2ccccc2C1`, for which the inhibition with Botrytis cinerea worked out at 80%; in assay [1] it was 30%; in the assay on Phytophthora infestans it was 100%; in the assay on Pyricularia oryzae it was 100%; in the assay on Colletotrichum lagenaria it was 30%; in the assay with Blumeria graminis, 10%.
As for `CO/C=C(/C(=O)OC)c1ccccc1CO/N=C(\C)C1=Cc2c(Cl)cccc2C1`, the inhibition was found to be 80% in the assay on Botrytis cinerea; 0% in assay [1]; 100% in the assay on Phytophthora infestans; 100% in the assay with Pyricularia oryzae; 30% with Colletotrichum lagenaria; 85% in the assay with Blumeria graminis.
For the molecule `CNC(=O)/C(=N/OC)c1ccccc1CO/N=C(\C)C1=Cc2cc(Cl)ccc2C1`, the inhibition with Botrytis cinerea was determined as 100%; in assay [1], 90%; with Phytophthora infestans it was 80%; in the assay on Pyricularia oryzae it was 80%; in the assay on Colletotrichum lagenaria, 98%; in the assay with Blumeria graminis, 100%.
